According to patent US20230092890A1, “1, 3, 4-Oxadiazole derivative compounds as histone deacetylase 6 inhibitor, and the pharmaceutical composition comprising the same” (Chong Kun Dang Pharmaceutical Corp., priority 2019, published 2023):
pIC50: −log10 of the molar value.

Columns and labels:
HDAC6 human recombinant = molecular target: T1, HDAC6 human recombinant (Homo sapiens, UniProt Q9UBN7); assay: HDAC enzyme activity inhibition (in vitro), HDAC6 assay; assay type: biochemical; details: samples at 0.1, 1, 10, 100 and 1000 nM; 37° C. 60 minutes; fluorescence Ex 390, Em 460; read-out: HDAC6 IC50
T1 construct: purchased Calbiochem 382180
T1 sequence (Q9UBN7 1-1215): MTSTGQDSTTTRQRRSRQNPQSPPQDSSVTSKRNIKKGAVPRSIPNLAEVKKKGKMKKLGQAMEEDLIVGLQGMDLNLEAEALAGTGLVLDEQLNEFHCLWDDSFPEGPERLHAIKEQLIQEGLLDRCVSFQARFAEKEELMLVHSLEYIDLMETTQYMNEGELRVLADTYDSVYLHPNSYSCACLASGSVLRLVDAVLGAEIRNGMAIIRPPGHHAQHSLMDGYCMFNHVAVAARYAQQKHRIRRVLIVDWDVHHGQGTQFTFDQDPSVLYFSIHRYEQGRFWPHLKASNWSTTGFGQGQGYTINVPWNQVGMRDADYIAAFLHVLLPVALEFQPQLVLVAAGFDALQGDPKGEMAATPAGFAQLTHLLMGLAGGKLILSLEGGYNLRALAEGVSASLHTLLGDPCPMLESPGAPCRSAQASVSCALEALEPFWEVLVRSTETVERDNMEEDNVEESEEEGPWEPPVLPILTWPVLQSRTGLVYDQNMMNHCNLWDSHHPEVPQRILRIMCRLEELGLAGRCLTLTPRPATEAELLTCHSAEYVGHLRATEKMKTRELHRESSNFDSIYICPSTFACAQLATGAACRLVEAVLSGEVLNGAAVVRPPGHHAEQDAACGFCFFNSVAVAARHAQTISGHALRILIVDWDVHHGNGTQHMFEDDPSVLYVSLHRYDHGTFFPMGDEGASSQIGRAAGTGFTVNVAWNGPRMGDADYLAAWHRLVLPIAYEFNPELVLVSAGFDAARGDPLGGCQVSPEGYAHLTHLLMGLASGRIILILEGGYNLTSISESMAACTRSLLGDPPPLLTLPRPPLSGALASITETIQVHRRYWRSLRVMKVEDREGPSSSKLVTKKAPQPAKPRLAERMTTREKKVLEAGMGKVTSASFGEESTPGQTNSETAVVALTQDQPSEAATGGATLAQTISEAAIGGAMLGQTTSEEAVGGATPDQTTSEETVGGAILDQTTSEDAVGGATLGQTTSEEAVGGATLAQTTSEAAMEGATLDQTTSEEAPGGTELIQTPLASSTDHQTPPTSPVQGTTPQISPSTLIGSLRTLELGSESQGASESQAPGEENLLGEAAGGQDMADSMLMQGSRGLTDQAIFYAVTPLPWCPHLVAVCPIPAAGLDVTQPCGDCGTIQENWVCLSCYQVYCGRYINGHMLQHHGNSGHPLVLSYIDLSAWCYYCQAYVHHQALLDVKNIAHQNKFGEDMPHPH
Method in brief: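 Fluorescence (Ex 390, Em 460) read after a 37° C, 60 min enzyme reaction and a further 30 min developer step at 37° C. Uses recombinant human HDAC6; HDAC1 arm dosed at 100, 1000, 10000 nM.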

HDAC1 = molecular target: T2, HDAC1 (Homo sapiens, UniProt Q13547); assay: HDAC enzyme activity inhibition (in vitro), HDAC1 Fluorimetric Drug Discovery Assay Kit; assay type: biochemical; details: samples at 100, 1000 and 10000 nM; 37° C. 60 minutes; fluorescence Ex 390, Em 460; read-out: HDAC1 IC50
T2 construct: purchased Enzolifesciences BML-AK511
T2 sequence (Q13547 whole entry): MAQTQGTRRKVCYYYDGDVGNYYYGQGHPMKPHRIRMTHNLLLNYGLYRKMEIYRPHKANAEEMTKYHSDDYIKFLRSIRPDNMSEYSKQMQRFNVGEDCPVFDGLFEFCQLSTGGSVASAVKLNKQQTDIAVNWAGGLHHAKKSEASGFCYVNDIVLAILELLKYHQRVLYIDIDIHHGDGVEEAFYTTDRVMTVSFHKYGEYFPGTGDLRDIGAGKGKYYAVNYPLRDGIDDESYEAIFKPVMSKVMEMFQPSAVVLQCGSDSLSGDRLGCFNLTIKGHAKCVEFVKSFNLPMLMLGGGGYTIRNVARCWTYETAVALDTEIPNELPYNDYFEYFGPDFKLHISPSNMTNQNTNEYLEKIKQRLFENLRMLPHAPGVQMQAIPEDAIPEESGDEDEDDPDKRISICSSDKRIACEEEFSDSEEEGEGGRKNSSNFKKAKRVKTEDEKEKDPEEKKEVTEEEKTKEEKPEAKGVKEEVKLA
Method in brief: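 Each sample reacted with enzyme for 60 min at 37° C before a 30-min developer step at the same temperature. HDAC1 doses spanned 100 to 10000 nM. Fluorescent signal was read at Ex 390/Em 460.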

pIC50 (HDAC6 human recombinant) | pIC50 (HDAC1) | SMILES
7.14 | < 5.00 | CC(=O)N1CCC(n2c(=O)n(Cc3ccc(-c4nnc(C(F)F)o4)cc3)c3ccc(Cl)cc32)CC1 [Compound 183, 3-(1-acetylpiperidine-4-yl)-5-chloro-1-(4-(5-(difluoromethyl)-1,3,4-oxadiazole-2-yl)benzyl)-1,3-dihydro-2H-benzo[d]imidazole-2-one]
6.80 | < 5.00 | O=c1n(Cc2ccc(-c3nnc(C(F)F)o3)cn2)c2ccccc2n1C1CCOCC1 [Compound 12, 1-((5-(5-(difluoromethyl)-1,3,4-oxadiazole-2-yl)pyridine-2-yl)methyl)-3-(tetrahydro-2H-pyran-4-yl)-1,3-dihydro-2H-benzo[d]imidazole-2-one]
6.41 | < 5.00 | O=c1n(Cc2ccc(-c3nnc(C(F)F)o3)cc2)c2ncccc2n1C1CCN(C2COC2)CC1 [Compound 106, 3-(4-(5-(difluoromethyl)-1,3,4-oxadiazole-2-yl)benzyl)-1-(1-(oxetan-3-yl)piperidine-4-yl)-1,3-dihydro-2H-imidazo[4,5-b]pyridine-2-one]
6.63 | < 5.00 | O=c1n(Cc2ccc(-c3nnc(C(F)F)o3)cc2F)c2ccccc2n1C1CCOCC1 [Compound 34, 1-(4-(5-(difluoromethyl)-1,3,4-oxadiazole-2-yl)-2-fluorobenzyl)-3-(tetrahydro-2H-pyran-4-yl)-1,3-dihydro-2H-benzo[d]imidazole-2-one]
7.24 | < 5.00 | CN1CCC(n2c(=O)n(Cc3ccc(-c4nnc(C(F)F)o4)cc3F)c3cc(C(F)(F)F)ccc32)CC1 [Compound 91]
7.64 | < 5.00 | CC(C)N1CCC(n2cc(-c3cc4oc(=O)n(Cc5ccc(-c6nnc(C(F)F)o6)cn5)c4cc3F)cn2)CC1 [Compound 361, 3-((5-(5-(difluoromethyl)-1,3,4-oxadiazole-2-yl)pyridine-2-yl)methyl)-5-fluoro-6-(1-(1-isopropylpiperidine-4-yl)-1H-pyrazole-4-yl)benzo[d]oxazole-2(3H)-one]
7.41 | < 5.00 | CN1CCN(c2cc3c(cc2F)n(Cc2ccc(-c4nnc(C(F)F)o4)cn2)c(=O)n3C2COC2)CC1 [Compound 319, 1-((5-(5-(difluoromethyl)-1,3,4-oxadiazole-2-yl)pyridine-2-yl)methyl)-6-fluoro-5-(4-methylpiperazine-1-yl)-3-(oxetan-3-yl)-1,3-dihydro-2H-benzo[d]imidazole-2-one]
7.64 | < 5.00 | O=c1oc2ccccc2n1Cc1ccc(-c2nnc(C(F)F)o2)cn1 [Compound 246, 3-((5-(5-(difluoromethyl)-1,3,4-oxadiazole-2-yl)pyridine-2-yl)methyl)benzo[d]oxazole-2(3H)-one]
8.15 | < 5.00 | O=c1n(Cc2ccc(-c3nnc(C(F)F)o3)cn2)c2cc(F)c(-c3cccnc3)cc2n1CC1CCN(C2COC2)CC1 [Compound 290, 1-((5-(5-(difluoromethyl)-1,3,4-oxadiazole-2-yl)pyridine-2-yl)methyl)-6-fluoro-3-((1-(oxetan-3-yl)piperidine-4-yl)methyl)-5-(pyridine-3-yl)-1,3-dihydro-2H-benzo[d]imidazole-2-one]
7.74 | < 5.00 | CS(=O)(=O)N1CCC(n2c(=O)n(Cc3ccc(-c4nnc(C(F)F)o4)cn3)c3cc(Cl)ccc32)CC1 [Compound 216, 5-chloro-3-((5-(5-(difluoromethyl)-1,3,4-oxadiazole-2-yl)pyridine-2-yl)methyl)-1-(1-(methylsulfonyl)piperidine-4-yl)-1,3-dihydro-2H-benzo[d]imidazole-2-one]
7.54 | < 5.00 | CN1CC[C@@H](n2c(=O)n(Cc3ccc(-c4nnc(C(F)F)o4)cn3)c3cc(F)c(-c4ccncc4)cc32)C1 [Compound 272, (R)-1-((5-(5-(difluoromethyl)-1,3,4-oxadiazole-2-yl)pyridine-2-yl)methyl)-6-fluoro-3-(1-methylpyrrolidine-3-yl)-5-(pyridine-4-yl)-1,3-dihydro-2H-benzo[d]imidazole-2-one]
